Here are results for one compound from publication PMC4287973, “Tumor cell-specific inhibition of MYC function using small molecule inhibitors of the HUWE1 ubiquitin ligase” (EMBO Molecular Medicine, 2014).

The target in this assay is T1, HUWE1 (Homo sapiens, UniProt Q7Z6Z7).
T1 construct: expressed in transfected cells; host or cells: HeLa
In words: In vivo (cellular) ubiquitination of MCL1 by ectopic HA-HUWE1 in HeLa cells. Conditions: HeLa cells transfected with MCL1, His-ubiquitin, inhibitor 16 hrs, read-out: IC50 relative MCL1 ubiquitination. The format is cell-based. An excerpt: HeLa cells were transfected with plasmids expressing MCL1, His-ubiquitin, and HA-HUWE1. […] After lysis, ubiquitin-modified proteins were recovered by Ni-NTA-Agarose and immunoblots of the eluates were probed with an antibody against MCL1. […] At the same time, cells were irradiated with 500 J/m^2 UVB and harvested after indicated time points. Immunoblots of the lysates were probed with antibodies recognizing either MCL1 or CDK2 as control. Quantification of the MCL1 protein levels for the according experiment is shown directly below the immunoblots. Diagrams below the immunoblots show mean protein levels ± SD (n = 5). From the data, the half-life of the MCL1 protein was determined with P-values calculated using a Student's t-test. • Effects of HUWE1 inhibition on levels of TopBP1. […] Cell lysates were fractionated in chromatin-bound and soluble non-chromatin-bound fractions. Immunoblots of the soluble fraction were incubated with indicated antibodies.
To test the efficacy of both compounds in tissue culture, we initially confirmed observations that HUWE1 ubiquitinates and degrades MCL1 in response to DNA damage (Zhong et al, [2005]). Consistent with these published data, steady-state levels of MCL1 decreased rapidly upon UV irradiation of U2OS cells and depletion of HUWE1 both enhanced steady-state levels of MCL1 and retarded the decrease upon UV irradiation (Supplementary Fig S4A). […]

Broadly, the pIC50 is −log10 of the IC50, conventionally taken in molar units.

pIC50: −log10 of the molar value.

T1 sequence (Q7Z6Z7 whole entry): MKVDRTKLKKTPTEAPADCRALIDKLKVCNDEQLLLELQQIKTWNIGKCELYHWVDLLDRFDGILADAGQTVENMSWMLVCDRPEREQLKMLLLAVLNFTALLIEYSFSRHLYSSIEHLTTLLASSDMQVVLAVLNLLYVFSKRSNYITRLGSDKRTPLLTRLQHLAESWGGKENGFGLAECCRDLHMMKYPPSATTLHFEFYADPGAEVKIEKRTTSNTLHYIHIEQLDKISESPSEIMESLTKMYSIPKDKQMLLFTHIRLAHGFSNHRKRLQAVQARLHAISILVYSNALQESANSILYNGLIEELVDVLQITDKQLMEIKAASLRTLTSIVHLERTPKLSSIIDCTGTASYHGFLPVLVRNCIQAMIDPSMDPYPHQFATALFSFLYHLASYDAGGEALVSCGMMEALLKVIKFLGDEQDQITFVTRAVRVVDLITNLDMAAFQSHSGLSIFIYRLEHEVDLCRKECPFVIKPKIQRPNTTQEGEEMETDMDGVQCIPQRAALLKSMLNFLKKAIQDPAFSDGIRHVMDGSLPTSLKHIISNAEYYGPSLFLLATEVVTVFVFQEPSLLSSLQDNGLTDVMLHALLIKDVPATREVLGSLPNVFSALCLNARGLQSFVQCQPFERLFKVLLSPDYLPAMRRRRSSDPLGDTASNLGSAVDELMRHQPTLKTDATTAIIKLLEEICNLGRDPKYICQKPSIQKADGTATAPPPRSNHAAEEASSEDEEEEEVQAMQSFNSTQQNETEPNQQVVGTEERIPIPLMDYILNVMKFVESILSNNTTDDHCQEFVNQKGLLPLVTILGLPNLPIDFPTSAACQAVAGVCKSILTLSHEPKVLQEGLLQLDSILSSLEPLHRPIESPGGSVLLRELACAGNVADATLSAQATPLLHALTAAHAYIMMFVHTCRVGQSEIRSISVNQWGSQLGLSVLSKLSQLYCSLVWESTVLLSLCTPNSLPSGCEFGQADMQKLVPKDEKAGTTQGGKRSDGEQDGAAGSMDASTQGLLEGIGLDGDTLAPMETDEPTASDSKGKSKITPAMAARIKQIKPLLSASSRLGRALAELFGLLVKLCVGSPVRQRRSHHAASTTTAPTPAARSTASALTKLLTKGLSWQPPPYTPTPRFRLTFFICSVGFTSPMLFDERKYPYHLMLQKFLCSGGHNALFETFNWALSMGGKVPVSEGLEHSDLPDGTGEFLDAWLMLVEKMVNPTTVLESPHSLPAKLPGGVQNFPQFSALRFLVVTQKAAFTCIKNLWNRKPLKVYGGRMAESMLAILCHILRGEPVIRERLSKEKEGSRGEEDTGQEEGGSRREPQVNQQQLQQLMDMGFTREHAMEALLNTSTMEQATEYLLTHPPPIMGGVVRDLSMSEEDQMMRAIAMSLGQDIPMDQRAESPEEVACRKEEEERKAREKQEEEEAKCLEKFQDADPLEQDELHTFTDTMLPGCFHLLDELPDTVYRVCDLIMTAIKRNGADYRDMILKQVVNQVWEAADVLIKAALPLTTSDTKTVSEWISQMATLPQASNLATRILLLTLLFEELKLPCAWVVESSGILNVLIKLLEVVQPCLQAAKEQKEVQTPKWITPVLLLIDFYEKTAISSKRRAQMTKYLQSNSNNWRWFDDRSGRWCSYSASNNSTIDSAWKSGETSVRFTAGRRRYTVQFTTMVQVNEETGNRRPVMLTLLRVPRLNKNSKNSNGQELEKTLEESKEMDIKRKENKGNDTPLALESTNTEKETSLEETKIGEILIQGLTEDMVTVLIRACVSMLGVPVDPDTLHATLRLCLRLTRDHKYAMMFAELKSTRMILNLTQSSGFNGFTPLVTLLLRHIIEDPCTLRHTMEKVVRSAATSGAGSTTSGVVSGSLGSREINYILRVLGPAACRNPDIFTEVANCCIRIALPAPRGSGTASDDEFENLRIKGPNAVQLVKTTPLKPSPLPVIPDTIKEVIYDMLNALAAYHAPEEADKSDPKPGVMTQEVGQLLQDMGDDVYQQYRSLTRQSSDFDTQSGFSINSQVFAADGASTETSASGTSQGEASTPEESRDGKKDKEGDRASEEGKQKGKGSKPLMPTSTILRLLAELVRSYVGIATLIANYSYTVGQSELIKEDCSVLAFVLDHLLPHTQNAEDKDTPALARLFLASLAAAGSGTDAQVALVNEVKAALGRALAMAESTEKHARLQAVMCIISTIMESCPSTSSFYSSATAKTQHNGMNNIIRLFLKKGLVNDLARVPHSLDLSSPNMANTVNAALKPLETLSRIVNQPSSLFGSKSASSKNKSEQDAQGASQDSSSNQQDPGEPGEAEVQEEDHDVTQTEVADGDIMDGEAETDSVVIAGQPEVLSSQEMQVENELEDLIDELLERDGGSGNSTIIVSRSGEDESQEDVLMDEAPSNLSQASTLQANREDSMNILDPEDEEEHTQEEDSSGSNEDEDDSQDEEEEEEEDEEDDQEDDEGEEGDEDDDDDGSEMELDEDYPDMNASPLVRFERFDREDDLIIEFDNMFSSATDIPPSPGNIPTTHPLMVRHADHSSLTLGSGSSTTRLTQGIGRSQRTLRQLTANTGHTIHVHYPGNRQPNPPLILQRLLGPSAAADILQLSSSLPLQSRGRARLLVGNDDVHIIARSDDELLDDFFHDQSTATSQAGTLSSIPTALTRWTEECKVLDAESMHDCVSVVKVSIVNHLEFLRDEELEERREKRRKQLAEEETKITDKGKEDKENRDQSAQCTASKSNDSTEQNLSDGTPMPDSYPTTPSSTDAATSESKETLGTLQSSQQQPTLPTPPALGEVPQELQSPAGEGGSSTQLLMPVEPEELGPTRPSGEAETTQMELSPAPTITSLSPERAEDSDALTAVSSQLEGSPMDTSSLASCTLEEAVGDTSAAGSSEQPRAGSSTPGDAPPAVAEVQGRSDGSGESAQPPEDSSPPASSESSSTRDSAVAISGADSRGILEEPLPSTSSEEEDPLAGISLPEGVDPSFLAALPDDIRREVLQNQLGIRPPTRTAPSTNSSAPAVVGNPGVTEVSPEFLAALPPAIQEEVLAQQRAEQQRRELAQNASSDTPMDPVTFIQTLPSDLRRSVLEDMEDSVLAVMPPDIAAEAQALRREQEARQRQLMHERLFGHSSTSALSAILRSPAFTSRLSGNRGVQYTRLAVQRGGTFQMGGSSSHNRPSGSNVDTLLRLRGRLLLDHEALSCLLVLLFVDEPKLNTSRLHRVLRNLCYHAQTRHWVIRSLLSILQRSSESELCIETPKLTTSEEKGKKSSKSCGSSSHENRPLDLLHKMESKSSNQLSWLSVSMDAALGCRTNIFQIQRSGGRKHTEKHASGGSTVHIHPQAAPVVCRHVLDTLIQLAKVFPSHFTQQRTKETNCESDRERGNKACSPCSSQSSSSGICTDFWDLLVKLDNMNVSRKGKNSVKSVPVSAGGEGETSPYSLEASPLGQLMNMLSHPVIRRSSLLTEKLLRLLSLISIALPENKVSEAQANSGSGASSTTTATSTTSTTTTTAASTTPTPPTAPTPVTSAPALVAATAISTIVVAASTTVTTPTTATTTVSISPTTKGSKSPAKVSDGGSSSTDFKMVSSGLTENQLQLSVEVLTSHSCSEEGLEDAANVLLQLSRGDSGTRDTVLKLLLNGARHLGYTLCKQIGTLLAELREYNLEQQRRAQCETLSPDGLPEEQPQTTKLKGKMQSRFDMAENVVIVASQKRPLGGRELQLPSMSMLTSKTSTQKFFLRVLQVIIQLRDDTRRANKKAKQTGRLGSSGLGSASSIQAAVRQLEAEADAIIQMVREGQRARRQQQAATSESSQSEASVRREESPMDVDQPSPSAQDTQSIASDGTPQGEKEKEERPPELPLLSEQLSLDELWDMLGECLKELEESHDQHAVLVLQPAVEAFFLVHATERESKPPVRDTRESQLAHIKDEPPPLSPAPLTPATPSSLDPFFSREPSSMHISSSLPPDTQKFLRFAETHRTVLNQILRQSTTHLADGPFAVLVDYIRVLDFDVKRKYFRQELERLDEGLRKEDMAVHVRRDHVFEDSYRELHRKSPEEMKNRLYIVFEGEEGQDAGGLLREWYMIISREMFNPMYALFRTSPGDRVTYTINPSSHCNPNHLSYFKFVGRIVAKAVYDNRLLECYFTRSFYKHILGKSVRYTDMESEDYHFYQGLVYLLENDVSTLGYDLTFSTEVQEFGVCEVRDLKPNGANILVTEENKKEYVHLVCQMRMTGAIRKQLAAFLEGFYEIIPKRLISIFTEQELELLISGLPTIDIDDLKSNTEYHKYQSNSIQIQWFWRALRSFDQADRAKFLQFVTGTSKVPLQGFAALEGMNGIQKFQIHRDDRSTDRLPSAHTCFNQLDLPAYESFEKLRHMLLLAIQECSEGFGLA

Take `Cc1c(C(=O)Nc2ccc(CN)cc2)ncnc1N1CCC(C#N)(c2ccccc2)CC1` [BI8622]: the negative logarithm of the IC50 (pIC50) is 5.17.
